Columns and labels:
[1] = system: M. tuberculosis (H37Rv strain); experiment: Mtb growth in minimal media with a defined sole carbon source; details: 100 μg/mL
Helicobacter pylori = details: recent work; cited from earlier work
[2] = system: M. tuberculosis (H37Rv strain); experiment: Direct effect of cholestenone on Mtb growth in broth culture (absorbance, CFU); details: bacilli growing in broth culture
Mtb isocitrate lyase(s) = details: Mtb enzyme, methylcitrate cycle; cited from earlier work
[3] = system: host and Mtb methylmalonyl-CoA mutase; details: host and Mtb enzyme; cited from earlier work

## C[C@H](CCCC(C)(C)O)[C@H]1CC[C@H]2[C@@H]3CC=C4C[C@@H](O)CC[C@]4(C)[C@H]3CC[C@]12C [25-HC, 25-hydroxycholesterol]
[1]
  growth of Mtb with the substance as sole carbon source: grew

## CC(C)CCC[C@@H](C)[C@H]1CC[C@H]2[C@@H]3CCC4=CC(=O)CC[C@]4(C)[C@H]3CC[C@]12C [cholestenone, 4-cholesten-3-one]
Helicobacter pylori
  antimicrobial activity against Helicobacter pylori: has antimicrobial activity
[2]
  direct antimicrobial activity (toxicity) against Mtb: not directly toxic to Mtb

## CC(C)CCC[C@@H](C)[C@H]1CC[C@H]2[C@@H]3CC=C4C[C@@H](O)CC[C@]4(C)[C@H]3CC[C@]12C [cholesterol]
[1]
  growth of Mtb with the substance as sole carbon source: grew

## C=C(CC(=O)O)C(=O)O [itaconate, itaconic acid]
Mtb isocitrate lyase(s)
  inhibition of isocitrate lyase(s): inhibits
[3]
  inhibition of methylmalonyl-CoA mutase: inhibits

Reference: patent publication US12716904B2, “Compositions and methods for the detection of tuberculosis” (Washington University, priority 2021, dated 2026)
